Data set [1] relates to CE81T/VGH cells. Description: Cell cycle analysis by flow cytometry (propidium iodine). Type of data set: cell-based, human. How it is done: FIG. 1 illustrates the effects of CH-205-O (i.e., armillaridin) on cell cycle distribution in CE81T/VGH cells in accordance with one embodiment of this invention, in which upper panels represented results obtained from CE81T/VGH cells treated with 0 (panel A), 10 μM (panel B) or 20 μM (panel C) of CH-205-O for 48 hours, and lower panels represented results obtained from CE81T/VGH cells treated with 0 (panel D), 10 μM (panel E) or 20 μM (panel F) of CH-205-O for 72 hours;
Cultured cells with or without pre-treatment of the compound of this invention (i.e., armillaridin at 10 or 20 μM for 48 or 72 hours) were harvested from the cultured media and fixed by incubating with 75% iced cold ethanol at 4° C. for at least over night. The fixed cells were then warmed up to room temperature and treated with RNAase A for about 30 min. Precipitated cells were collected by centrifugation and re-suspended in a buffer solution containing propidium iodine (20 μg/ml) before being subject to flow cytometry analysis, where cell numbers at respective cell cycles were determined.

The test system of data set [2] is BE-3 human esophageal adenocarcinoma cell line. As to the kind of experiment: Trypan blue exclusion test, cell viability. Conditions: BE-3, 72 hours, read-out: IC50 (concentration required to reduce viability by 50%). Type of data set: cell-based. How it is done: (§1) Cell lines used in the present disclosure include human esophageal squamous carcinoma cell lines CE81T/VGH and TE-2, and human esophageal adenocarcinoma cell lines BE-3 and SKGT-4. Each cell lines were cultured and maintained in Dulbecco's modified Eagle media (DMEM) supplemented with 10% fetal calf serum, 100 IU/ml penicillin, 100 μg/ml streptomycin, and 2 mM glutamine in 5% CO2 at 37° C.
(§2) The dye exclusion test is used to determine the number of viable cells present in a cell suspension. […] In this test, the cells were first treated with a test compound (i.e., CH-205-O) for a certain period of time (e.g., 72 hours), then the cells were harvested and re-suspended in suitable buffer solution. The cell suspension was then mixed with trypan blue dye and then visually examined to determine whether cells had taken up or excluded the dye. A viable cell will have a clear cytoplasm, whereas a nonviable cell will have a blue cytoplasm. The concentration required to reduce viability by 50% (IC50) after 72 hours was extrapolated from the dose-response curves by different concentrations of the test compound using a second-order polynomial regression model and analyzing with SigmaPlot Software (Systat Software Inc., San Jose, Calif.).
(§3) The human esophageal cancer cell lines including squamous cell carcinoma cell lines CE81T/VGH and TE-2, and adenocarcinoma cell lines BE-3 and SKGT-4 were cultured and maintained by procedures described above in the “Materials and Methods” Section. Anti-proliferative activity of armillaridin (hereafter “CH-205-O”) on each cell lines was assessed by cell viability and cell cycle analysis.

Data set [3] concerns TE-2 human esophageal squamous carcinoma cell line. Description: Trypan blue exclusion test, cell viability. Type of data set: cell-based. The note with it: TE-2, 72 hours, read-out: IC50 (concentration required to reduce viability by 50%). The protocol: as §1, §2, §3
For data set [4], the system named is SKGT-4 human esophageal adenocarcinoma cell line. Description: Trypan blue exclusion test, cell viability. Type of data set: cell-based. Conditions: SKGT-4, 72 hours, read-out: IC50 (concentration required to reduce viability by 50%). The protocol: as §1, §2, §3
Data set [5] has as its system CE81T/VGH human esophageal squamous carcinoma cell line. As to the kind of experiment: Trypan blue exclusion test, cell viability. Type of data set: cell-based. Conditions: read-out: IC50 (concentration required to reduce viability by 50%). How it is done:
as §1, §2, §3

Data set [6] relates to CE81T/VGH cells xenografted esophageal tumor. As to the kind of experiment: Xenograft esophageal cancer mice model. Type of data set: in vivo, Balb/c nude mice. The protocol: For primary esophageal cancer model, total of 9 Balb/c nude mice at the age of 6 weeks were randomly divided into 3 groups, with 3 mice in each group. To start the experiment, each mice were injected with 5×10^5 CE81T/VGH cells subcutaneously to generate esophageal cancer on day 0, and then returned to culture for another 21 days to allow tumor progression. To evaluate the efficacy of the test compound, mice in the test group were given 3 doses of the test compound (CH-205-O at 80 mg/Kg/dose; or cisplatin at 2.5 mg/Kg/dose) every week, and total of […] were given during a period of 20 days after treatment started on day 22. Tumor sizes were measured using calipers. The body weight and the white blood cell counts of each mice were respectively recorded every day throughout the experiment. Tumor volume was calculated using the formula: volume=width^2×length×0.52.
Effects of CH-205-O of this disclosure on mice grafted with CE81T/VGH cells were investigated by measuring the grafted tumor volume; body weight and the number of white blood cells of the mice in accordance with steps described in “Materials and Methods” section. Results are illustrated in FIG. 3.

Data set [7] relates to CE81T/VGH cells. As to the kind of experiment: Radiation treatment and clonogenic assay. Type of data set: cell-based, human. Conditions: pre-treatment 2.5 or 5 μM for 24 hours, then 0-4 Gy radiation, colonies counted after 14 days. The protocol:
Approximately 100 variable tumor cells were respectively plated onto 35-mm six-well culture dishes and were allowed to grow in DMEM medium contained 10% FCS mixed with 0, 1.25, 2.5 or 5 μM of the test compound of this disclosure (i.e., CH-205-O), and the test compound-treated cells were continued culture for 24 hours. The test compound was then washed out, and cells were subject to radiation treatment. Specifically, 6 MeV electron beam energy was delivered by a linear accelerator (Clinac 1800, Varian Associates, Inc., Palo Alto, Calif., USA) with a rate of 2.4 Gy/min at various dose including 0, 0.5, 1, 2, 3 and 4 Gy in a single fraction. Full electron equilibrium was ensured for each fraction by a parallel plate PR-60C ionization chamber (CAPINTEL, Inc., Ramsey, N.Y., USA).
After radiation treatment, cells were returned to the culture for another 14 days; then were stained with 3% crystal violet and the numbers of colony (≧50 cells) were counted.
To this purpose, cancerous cells were pre-treated with 1.25, 2.5 or 5 μM CH-205-O, before being treated with various doses of radiation in accordance with procedures described in “Materials and Methods” section. […]

[8] abbreviates: long-term exposure, 80 mg/Kg/dose, 12 doses.

Like-named read-outs stand apart in the source and are kept apart here.

Regarding `COc1cc(O)c(C(=O)O[C@@H]2C[C@]3(C)C4CC(C)(C)CC4C=C(C=O)[C@]23O)c(C)c1Cl` (stereo partly drawn) [CH-205-O, (2R,2aS,7bR)-3-formyl-2,2a,4a,5,6,7,7a,7b-octahydro-2a-hydroxy-6,6,7b-trimethyl-1H-cyclobuta[e]inden-2-yl 3-chloro-6-hydroxy-4-methoxy-2-methylbenzoate], the “Cell cycle arrest at G2/M phase” value in the data set on CE81T/VGH cells [1] (10 or 20 μM for 48 hours, CE81T/VGH cells) is “capable of arresting the CE81T/VGH cells at G2/M phase in a dose-dependent manner”. The “sub-G1 population of cells” value in the data set on CE81T/VGH cells [1] (10 or 20 μM, treatment for 72 hours, CE81T/VGH cells) is on record as “induce an increase in the sub-G1 population of cells”. In the data set with CE81T/VGH cells [1] (one specific example), the “Esophageal cancerous cells arrested at G2/M cycle” value is given as “at least 50%”. For the same compound, the IC50 in data set [2] was 5.4 µM; in data set [2] (Homo sapiens, 72 h) it was around 5 µM; in data set [3] (Homo sapiens, 72 h), around 3 µM; in data set [3], 3.4 µM; in data set [4] (Homo sapiens, SKGT4, 72 h), around 5 µM; in data set [4], 5.5 µM. Further, the IC50 in data set [5] (72 hours) is 6.9 µM; in data set [5] (Homo sapiens, CE81T, 72 h), around 7 µM. The “Volume of the xenografted esophageal tumor” value in data set [6] (80 mg/Kg/dose, at least 12 doses, compared with control mice (vehicle only)) is on record as “effective in reducing the volume of the xenografted esophageal tumor significantly”. The “Body weight of the mice” value in data set [6] (setting [8]) is reported as “does not affect”. In addition, the “Number of white blood cells of the mice” value in data set [6] (setting [8]) is “does not affect”. Further, the “Reduction of the size of the cancer as compared with control” value in data set [6] (long-term exposure, at least 12 doses within 20 days, 3 doses per week) is reported as “at least 50%”. Further, in the data set with CE81T/VGH cells [7], the “Susceptibility of CE81T/VGH cells to radiation treatment (colony formation)” value is “capable of enhancing the susceptibility of CE81T/VGH cells to radiation treatment”.

The record behind these values is US8663711B2, “Use of armillaridin for treating cancer” (Mackay Memorial Hospital, priority 2012, dated 2014).
